{
  "source": "paper PMC8364112",
  "about": "(Proceedings of the National Academy of Sciences of the …, 2021)",
  "origin": "cited, not measured here",
  "molecules": {"B1": {"name": "substitution of Ile5^P of PTH with a histidine: PTH with Ile5 substituted with a histidine (peptide, UniProt P01270 32-115, looked up, variant I5H)", "Parathyroid hormone": "SVSEHQLMHNLGKHLNSMERVEWLRKKLQDVHNFVALGAPLAPRDAGSQRPRKKEDNVLVESHEKSLGEADKADVNVLTKAKSQ", "modifications": "Parathyroid hormone"}},
  "system": "PTH2R",
  "details": "for mode of action on PTH2R: potent / mild / weak, ref [4], [16]",
  "data": [
    {"molecule": "PTH-related peptide [PTHrP]", "values": [
      {"measurement": "mode of action on PTH2R", "setting": "[13]", "result": "weak"},
      {"measurement": "action on PTH2R", "setting": "ref [3], [4], [13]", "result": "weak action on PTH2R"}
    ]},
    {"molecule": "parathyroid hormone (SVSEIQLMHNLGKHLNSMERVEWLRKKLQDVHNF; Parathyroid hormone; UniProt P01270 32-65, looked up, fragment) [PTH]", "values": [
      {"measurement": "mode of action on PTH2R", "setting": "[13]", "result": "mild"}
    ]},
    {"molecule": "B1", "values": [
      {"measurement": "effect of position 5 substitution on potency on PTH2R", "setting": "ref [27]", "result": "decreases the peptide potency"}
    ]}
  ]
}
